These results are taken from patent publication US10052330B2, “Substituted pyrido[3,4-b]pyrazines as Syk inhibitors” (HUTCHISON MEDIPHARMA LIMITED, priority 2011, dated 2018).

The subject of assay [1] is RBL-2H3 cells. In words: IgE-induced Beta-hexosaminidase secretion in RBL-2H3 cells. The format is cell-based. Conditions: Rattus norvegicus.
In assay [2] the target is Syk kinase (Homo sapiens, UniProt P43405). In words: Syk kinase enzymatic assay (Kit-Tyr 2 Peptide). It counts as biochemical.
Where [3] appears, read: RBL-2H3, read-out: IC50, IgE-induced Beta-hexosaminidase secretion.
The mark [4] stands for this setting: RBL-2H3, RBL-2H3 cells sensitized with SPE-7, stimulated with DNP-BSA, upper bound of each range is 'less than', read-out: IC50, IgE-induced Beta-hexosaminidase secretion.
Setting [5] is: 8 concentrations, 1 μM down to 0.0003 μM, upper bound of each range is 'less than', read-out: IC50: Enzymatic Activity (Syk kinase).

Where two headings read alike, the source gives them in different places.

What is called IC50 is the concentration needed to halve the response being measured. Regarding `O=C(CF)N1CCO[C@H](CNc2nc(-c3ccc(N4CCOCC4)cc3)cc3nccnc23)C1` [Compound 340], the IC50 in assay [1] (setting [3]) and in assay [2] was 1 to 100 nM throughout.
On to `CN1CCC(c2ccc(-c3cc4nccnc4c(NC[C@@H]4CN(S(C)(=O)=O)CCO4)n3)cc2)CC1` [Compound 460], for which the concentration for half-maximal inhibition (IC50) in assay [1] (setting [4]) and in assay [2] (setting [5]) was 1 to 100 nM throughout.
For `CCCC(=O)N1CCN(c2ccc(-c3cc4nccnc4c(NC[C@@H]4CNCCO4)n3)cc2)CC1` [Compound 426], the IC50 in assay [1] (setting [4]) and in assay [2] (setting [5]) was 1 to 100 nM each time.
As to `c1cnc2c(NC[C@@H]3CCCNC3)nc(-c3ccc(N4CCCC4)cc3)cc2n1` [Compound 119], the figures for the concentration for half-maximal inhibition (IC50) in assay [1] (setting [4]) and in assay [2] (setting [5]) were 100 to 1000 nM and 1 to 100 nM, respectively.
The like results for `COc1ccc(-c2cc3nccnc3c(NCC3CCCNC3)n2)cc1OC` (centres unmarked) [Compound 26] were, in that order, 100 to 1000 nM and 1 to 100 nM.
The corresponding values for `O=C(C(F)F)N1CCO[C@H](CNc2nc(-c3ccc(C4CCNCC4)cc3)cc3nccnc23)C1` [Compound 458] are 100 to 1000 nM and 1 to 100 nM.
`Cc1cc(-c2cc3nccnc3c(NCC3CNCCCO3)n2)ccc1N1CCOCC1` (centres unmarked) [Compound 221]: the IC50 in assay [1] (setting [4]) and in assay [2] (setting [5]) was 1 to 100 nM throughout.
`CN(C)c1ccc(-c2cc3nccnc3c(NC[C@H]3CNCCO3)n2)cc1` [Compound 92]: the IC50 in assay [1] (setting [4]) and in assay [2] (setting [5]) was 100 to 1000 nM throughout.
Turning to `Cn1cc(-c2cc3nccnc3c(NCC3CCCNC3)n2)cn1` (centres unmarked) [Compound 18], the IC50 in assay [1] (setting [3]) and in assay [2] (setting [5]) was 100 to 1000 nM in each case.
For `O=C(c1ccco1)N1CCN(c2ccc(-c3cc4nccnc4c(NCC4CNCCO4)n3)cc2)CC1` (centres unmarked) [Compound 425], the IC50 in assay [1] (setting [4]) and in assay [2] (setting [5]) was 1 to 100 nM throughout.
`CN(C)c1ccc(-c2cc3nccnc3c(NC[C@@H]3CN(C(=O)C(F)F)CCO3)n2)cc1F` [Compound 456]: the IC50 in assay [1] (setting [4]) and in assay [2] (setting [5]) was 1 to 100 nM throughout.
Consider `CN(CCO)c1ccc(-c2cc3nccnc3c(NCC3CNCCC3(F)F)n2)cc1` (centres unmarked) [Compound 485, 2-((4-(5-((4,4-difluoropiperidin-3-yl)methylamino)pyrido[4,3-b]pyrazin-7-yl)phenyl)(methyl)amino)ethanol], for which the IC50 in assay [1] (setting [4]) and in assay [2] (setting [5]) was 1 to 100 nM each time.
Take `CC(F)C(=O)N1CCN(c2ccc(-c3cc4nccnc4c(NC[C@@H]4CNCCO4)n3)cc2)CC1` (some centres unmarked) [Compound 433]: the IC50 in assay [1] (setting [4]) and in assay [2] (setting [5]) was 1 to 100 nM in each case.
Take `Fc1cc(-c2cc3nccnc3c(N3CCC4(CCCNC4)C3)n2)ccc1N1CCOCC1` (centres unmarked) [Compound 109]: the IC50 in assay [1] (setting [4]) and in assay [2] (setting [5]) was 1 to 100 nM each time.
As for `OCCn1cc(-c2cc3nccnc3c(NCC3CNCCC3(F)F)n2)cn1` (centres unmarked) [Compound 315], the IC50 in assay [1] (setting [4]) and in assay [2] (setting [5]) was 1 to 100 nM in each case.
Consider `O=C(CC(F)(F)F)N1CCN(c2ccc(-c3cc4nccnc4c(NC[C@@H]4CNCCO4)n3)cc2F)CC1` [Compound 428], for which the IC50 in assay [1] (setting [4]) and in assay [2] (setting [5]) was 1 to 100 nM in each case.
As for `CS(=O)(=O)N1CCC(Nc2ccc(-c3cc4nccnc4c(NC[C@@H]4CNCCO4)n3)cc2)CC1` [Compound 500], the IC50 in assay [1] (setting [4]) lay within 100 to 1000 nM; in assay [2] (setting [5]), 1 to 100 nM.
On to `CN(C)c1ccc(-c2cc3nccnc3c(N3CCC4(CCCNC4)C3)n2)cc1` (centres unmarked) [Compound 111], for which the IC50 in assay [1] (setting [4]) and in assay [2] (setting [5]) was 1 to 100 nM throughout.
Regarding `CC(C)Oc1ccc(-c2cc3nccnc3c(NC[C@@H]3CNCCO3)n2)cc1F` [Compound 100], the IC50 in assay [1] (setting [4]) and in assay [2] (setting [5]) was 100 to 1000 nM in each case.
In the case of `c1cnc2c(NCC3CCCNC3)nc(-c3cn[nH]c3)cc2n1` (centres unmarked) [Compound 25], the IC50 in assay [1] (setting [4]) and in assay [2] (setting [5]) was 100 to 1000 nM throughout.
Regarding `CC(C)(O)[C@@H]1CCN(c2nc(-c3ccc(N4CCOCC4)cc3)cc3nccnc23)C1` [Compound 170], in assay [1] (setting [4]), the IC50 fell in the range of 100 to 1000 nM.
With `FC(F)CNc1nc(-c2ccc(N3CCOCC3)cc2)cc2nccnc12` [Compound 197], the IC50 in assay [1] (setting [4]) fell in the range of 100 to 1000 nM.
Still for that read-out and setting: the same measure for `OCC1(CNc2nc(-c3ccc(N4CCOCC4)cc3)cc3nccnc23)COC1` [Compound 171]: 100 to 1000 nM.
In the case of `O=C1COCCN1c1ccc(-c2cc3nccnc3c(NC[C@@H]3CNCCO3)n2)cc1` [Compound 242], in assay [2] (setting [5]), the half-inhibitory concentration (IC50) lay in the range of 100 to 1000 nM.
Take `FC(F)(F)C1CCC(CNc2nc(-c3ccc(N4CCOCC4)cc3)cc3nccnc23)CN1` (centres unmarked) [Compound 199]: the IC50 in assay [1] (setting [4]) lay in the range of 100 to 1000 nM.
As to `c1cnc2c(NC[C@H]3CNCCO3)nc(-c3ccc(N4CCCC4)nc3)cc2n1` [Compound 101], the IC50 in assay [2] (setting [5]) lay within 100 to 1000 nM.
Still for that read-out and setting: the value for `CC[N+]1(CC)CCC(c2ccc(-c3cc4nccnc4c(NC[C@@H]4CN(C(=O)C(F)F)CCO4)n3)cc2)CC1` [Compound 480, (R)-4-(4-(5-((4-(2,2-difluoroacetyl)morpholin-2-yl)methylamino)pyrido[4,3-b]pyrazin-7-yl)phenyl)-1,1-diethylpiperidinium iodide] was 1 to 100 nM; that for `CCC(=O)N1CCO[C@H](CNc2nc(-c3ccc(N4CCOCC4)cc3)cc3nccnc23)C1` [Compound 327] was 100 to 1000 nM; that for `CNC(=O)COc1ccc(-c2cc3nccnc3c(NCC3CCCNC3)n2)cc1` (centres unmarked) [Compound 48] was 1 to 100 nM.
On the same count and under the same terms, the value for `FC1(CNc2nc(-c3ccc(N4CCOCC4)nc3)cc3nccnc23)CCCNC1` (centres unmarked) [Compound 252] was 100 to 1000 nM; that for `CNc1ccc(-c2cc3nccnc3c(NCC3CNCC(F)(F)C3)n2)cc1F` (centres unmarked) [Compound 207] was 100 to 1000 nM.
Consider `O=S(=O)(c1ccc(-c2cc3nccnc3c(NC[C@@H]3CNCCO3)n2)cc1)N1CCOCC1` [Compound 283], for which, in assay [2] (setting [5]), the IC50 fell in the range of 100 to 1000 nM.
For the compound `Nc1ccc(-c2cc3nccnc3c(NCC3CCCNC3)n2)cn1` (centres unmarked) [Compound 57], in assay [2] (setting [5]), the IC50 fell in the range of 100 to 1000 nM.
Regarding `NC(=O)N1CCC(F)(F)C(CNc2nc(-c3ccc(N4CCOCC4)cc3)cc3nccnc23)C1` (centres unmarked) [Compound 356], the IC50 in assay [2] (setting [5]) is 100 to 1000 nM.
On the same count and under the same terms, the value for `CCN(CC1CCCNC1)c1nc(-c2ccc(N3CCOCC3)cc2)cc2nccnc12` (centres unmarked) [Compound 154] was 100 to 1000 nM.
For the compound `CC(C)C(=O)N1CCO[C@H](CNc2nc(-c3ccc(N4CCOCC4)cc3)cc3nccnc23)C1` [Compound 328], the concentration for half-maximal inhibition (IC50) in assay [2] (setting [5]) lay in the range of 100 to 1000 nM.
As for `FC1(CNc2nc(-c3ccc(N4CCOCC4)nc3)cc3nccnc23)CCCNC1` (single isomer, unassigned) [Compound 378], the IC50 in assay [2] (setting [5]) was in the range of 100 to 1000 nM.
Still for that read-out and setting: the value for `CNC(=O)COc1ccc(-c2cc3nccnc3c(NC[C@@H]3CN(C(=O)C(F)F)CCO3)n2)cc1` [Compound 461] was 100 to 1000 nM; that for `CC(F)(F)C(=O)N1CCO[C@H](CNc2nc(-c3ccc(N4CCOCC4)cc3)cc3nccnc23)C1` [Compound 342] was 100 to 1000 nM; that for `O=C(C(F)F)N1CCO[C@H](CNc2nc(-c3ccc(N4CCOCC4)c(Cl)c3)cc3nccnc23)C1` [Compound 452] was 100 to 1000 nM.
Turning to `FC1(F)CCNC[C@@H]1CNc1nc(-c2ccc(N3CCOCC3)nc2)cc2nccnc12` [Compound 375, (R)—N-((4,4-difluoropiperidin-3-yl)methyl)-7-(6-morpholinopyridin-3-yl)pyrido[4,3-b]pyrazin-5-amine], the IC50 in assay [2] (setting [5]) was 100 to 1000 nM.
In the case of `CN(C)c1ccc(-c2cc3nccnc3c(NCC3CCCNC3)n2)cn1` (centres unmarked) [Compound 59], the IC50 in assay [2] (setting [5]) was 1 to 100 nM.
On the same count and under the same terms, the same measure for `CNc1ccc(-c2cc3nccnc3c(NCC3CNCC(F)(F)C3)n2)cc1` (centres unmarked) [Compound 204]: 100 to 1000 nM; for `CS(=O)(=O)c1ccc(-c2cc3nccnc3c(NC[C@H]3CNCCC3(F)F)n2)cc1` [Compound 391, (R)—N-((4,4-difluoropiperidin-3-yl)methyl)-7-(4-(methylsulfonyl)phenyl)pyrido[4,3-b]pyrazin-5-amine]: 100 to 1000 nM.
Still for that read-out and setting: the value for `c1cnc2c(N3CC4CCNC4C3)nc(-c3ccc(N4CCOCC4)cc3)cc2n1` (centres unmarked) [Compound 145, 4-(4-(5-(hexahydropyrrolo[3,4-b]pyrrol-5(1H)-yl)pyrido[4,3-b]pyrazin-7-yl)phenyl)morpholine] was 100 to 1000 nM; that for `O=C(c1ccc(-c2cc3nccnc3c(NCC3CCCNC3)n2)cc1)N1CCOCC1` (centres unmarked) [Compound 65] was 100 to 1000 nM.
On the same count and under the same terms, the same measure for `CC(C)Nc1nc(-c2ccc(N3CCOCC3)cc2)cc2nccnc12` [Compound 195]: 100 to 1000 nM; for `CN(C)C(=O)Cc1ccc(-c2cc3nccnc3c(NC[C@@H]3CNCCO3)n2)cc1` [Compound 224]: 100 to 1000 nM; for `c1cnc2c(NC3CCCNC3)nc(-c3ccc(N4CCOCC4)cc3)cc2n1` (centres unmarked) [Compound 27]: 100 to 1000 nM.
Consider `NC(=O)N1CCCCC1CNc1nc(-c2ccc(N3CCOCC3)cc2)cc2nccnc12` (centres unmarked) [Compound 354], for which, in assay [2] (setting [5]), the IC50 lay within 100 to 1000 nM.
Same read-out and setting: the same measure for `O=C(CO)N1CCO[C@H](CNc2nc(-c3ccc(N4CCOCC4)cc3)cc3nccnc23)C1` [Compound 337]: 100 to 1000 nM; for `CN(C)Cc1ccc(-c2cc3nccnc3c(NCC3CCCNC3)n2)cc1` (centres unmarked) [Compound 64]: 1 to 100 nM.
Consider `N#CCCNc1nc(-c2ccc(N3CCOCC3)cc2)cc2nccnc12` [Compound 187], for which, in assay [1] (setting [4]), the half-maximal inhibitory concentration (IC50) was in the range of 100 to 1000 nM.
For `CN1CCC(n2cc(-c3cc4nccnc4c(NC[C@@H]4CNCCO4)n3)cn2)CC1` [Compound 262], the IC50 in assay [2] (setting [5]) lay within 100 to 1000 nM.
Same read-out and setting: the value for `CS(=O)(=O)N1CCO[C@H](CNc2nc(-c3ccc(C4CCNCC4)cc3)cc3nccnc23)C1` [Compound 459] was 1 to 100 nM; that for `OCCn1cc(-c2cc3nccnc3c(NC[C@H]3CCCNC3)n2)cn1` [Compound 34] was 1 to 100 nM; that for `COCCn1cc(-c2cc3nccnc3c(NCC3CCCNC3)n2)cn1` (centres unmarked) [Compound 72] was 100 to 1000 nM.
Still for that read-out and setting: the value for `CNc1nc(-c2ccc(N3CCOCC3)cc2)cc2nccnc12` [Compound 357] was 100 to 1000 nM.
Consider `FC1(F)CNCC(CNc2nc(-c3ccc(N4CCOCC4)c(Cl)c3)cc3nccnc23)C1` (centres unmarked) [Compound 203], for which, in assay [2] (setting [5]), the IC50 fell in the range of 100 to 1000 nM.
On to `CNc1ccc(-c2cc3nccnc3c(NC[C@@H]3CN(C(=O)C(F)F)CCO3)n2)cc1` [Compound 453], for which, in assay [2] (setting [5]), the IC50 was in the range of 100 to 1000 nM.
